Assays:
[1] = biological target: T1, human IRAK4 (Homo sapiens, UniProt Q9NWZ3); assay: In vitro IRAK4 kinase activity, 33P isotope-labeled kinase assay; format: biochemical
T1 construct: purchased Reaction Biology Corp
T1 sequence (Q9NWZ3 1-460): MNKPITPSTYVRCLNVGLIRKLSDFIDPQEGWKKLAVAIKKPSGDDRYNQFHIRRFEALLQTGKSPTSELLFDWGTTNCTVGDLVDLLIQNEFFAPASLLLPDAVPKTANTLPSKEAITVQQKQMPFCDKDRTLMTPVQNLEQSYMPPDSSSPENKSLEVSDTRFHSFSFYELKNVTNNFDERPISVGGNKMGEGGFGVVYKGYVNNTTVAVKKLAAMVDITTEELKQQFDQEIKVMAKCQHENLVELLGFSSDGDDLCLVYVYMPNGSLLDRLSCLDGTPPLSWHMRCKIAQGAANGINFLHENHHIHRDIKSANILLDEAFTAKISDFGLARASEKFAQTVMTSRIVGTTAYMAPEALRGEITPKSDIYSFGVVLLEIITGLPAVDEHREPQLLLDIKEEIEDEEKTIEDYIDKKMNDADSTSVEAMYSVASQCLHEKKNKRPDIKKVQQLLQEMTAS
Method: The IC50 values were determined using ^33P isotope-labeled kinase activity assay (Reaction Biology Corp) to evaluate the inhibitory ability of the tested compounds on human IRAK4.
Buffer conditions: 20 mM Hepes (pH 7.5), 10 mM MgCl2, 1 mM EGTA, 0.02% Brij35, 0.02 mg/mL BSA, 0.1 mM Na3VO4, 2 mM DTT, 1% DMSO.
Test procedure: At room temperature, the tested compound was dissolved in DMSO and a 10 mM solution was prepared for use. The substrate was dissolved in a newly prepared buffer solution, and the tested IRAK4 kinase was added thereto and mixed evenly. The DMSO solution dissolved with the tested compound was added to the above mixed evenly reaction solution using acoustic technique (Echo 550). After incubation for 15 minutes, ^33P-ATP was added to initiate the reaction. The reaction was carried out at room temperature for 120 minutes, and the reaction mixture was dropped on P81 ion exchange filter paper (Whatman #3698-915). The filter paper was washed repeatedly with 0.75% phosphoric acid solution, and the radioactivity of phosphorylated substrate residues on the filter paper was determined. The kinase activity data were expressed by comparing the kinase activity of the group containing the tested compound with the kinase activity of the blank group (only containing DMSO), and the IC50 value was obtained by curve fitting by Prism4 software (GraphPad), the experimental results were shown in Table 2.

[2] = Pharmacokinetic study of mice; format: in vivo; conditions: mouse, plasma, CD-1 male mice; for Vd / AUC(0-t) / clearance / half-life: IV 3 mg/kg; for Vd: read-out: Apparent volume of distribution Vdss; for AUC(0-t): read-out: Area under the plasma concentration-time curve AUC0-24h; for clearance: read-out: Clearance rate CL; for half-life: read-out: Half-life T1/2 (converted); for bioavailability / AUC / Cmax / Tmax: PO 10 mg/kg; for AUC: read-out: Area under the plasma concentration-time curve AUC; for Cmax: read-out: Peak concentration Cmax; for Tmax: read-out: Peak time Tmax
Method: The purpose of this experiment was to study the pharmacokinetics of the test compound in the plasma of CD-1 male mice after intravenous injection and oral administration.
Intravenous injection group: the tested compound was weighed and dissolved with 5% DMSO/10% Solutol/85% H2O, and the pH was adjusted to 4-5 with 6M hydrochloric acid, and a clear solution of 1.5 mg/mL was prepared by vortex, which was filtered by 0.22 m microporous membrane for later use. CD-1 male mice from 6 to 10 weeks old were selected and the test compound solution was injected intravenously at a dose of 3 mg/kg. The sample collection time was: 0.083, 0.25, 0.5, 1, 2, 4, 6, 8, 24 hours.
Oral administration group: the tested compound was weighed and dissolved with 5% DMSO/10% Solutol/85% H2O, the pH was adjusted to 3-4 with 6M hydrochloric acid, and a clear solution of 2.0 mg/mL was prepared by vortex for later use. CD-1 male mice from 6 to 10 weeks old were selected and the test compound was administered orally at a dose of 10 mg/kg. The sample collection time was: 0.25, 0.5, 1, 2, 4, 6, 8, 10, 24 hours.
Approximately 50 μL of whole blood was collected through the jugular vein at each time point for plasma preparation for concentration determination by high performance liquid chromatography-tandem mass spectrometry (LC-MS/MS). All animals were euthanized by CO2 anesthesia after collecting PK samples at the last time point. The non-atrioventricular model of WinnonLin™ Version 6.3 (Pharsight, Mountain View, CA) pharmacokinetic software was used to process the plasma concentration, and the pharmacokinetic parameters were calculated by linear logarithmic trapezoid method.

[3] = test system: OCI-LY10 human diffuse large B lymphoma cells; assay: OCI-LY10 cell proliferation (Cell Titer Glo); format: cell-based; conditions: 72 hours
Method: (§1) The tumor cell lines OCI-LY10 and TMD-8 were used to detect the effect of the compound of the disclosure on inhibiting tumor cell proliferation in vitro.
OCI-LY10 human diffuse large B lymphoma cells, from Nanjing Cobioer Biotechnology Co., Ltd
(§2) The compound was diluted with DMSO to a final concentration of 10 mM. The compound was freshly prepared and ready for use.
(§3) a) Logarithmic growth period cells were collected, counted, resuspended with complete culture medium, the cell concentration was adjusted to an appropriate concentration (determined according to the results of cell density optimization test), inoculated on 96-well plates, and 100 μL of cell suspension was added to each well. Cells were incubated in an incubator with 37° C., 100% relative humidity and 5% CO2 for 24 hours.
(§4) b) The compound to be tested was diluted to 50 μM with culture medium and then gradient diluted for 8 times. Cells were added with 25 μL/well. The final concentrations of the compound were from […], 3-fold gradient dilution, with a total of 9 concentration points.
(§5) c) Cells were incubated in an incubator with 37° C., 100% relative humidity and 5% CO2 for 72 hours;
(§6) d) 60 μL of CTG test reagent was added to the culture medium.
(§7) e) Shaked fully and reacted in the dark for 10 min. Luminescence was measured on ENVISION and the inhibition rate was calculated.
(§8) Cell growth inhibition rate %=[(RLUv−RLUs)/(RLUv−RLUb)]×100%

[4] = test system: TMD-8 human diffuse large B lymphoma cells; assay: TMD-8 cell proliferation (Cell Titer Glo); format: cell-based; conditions: TMD8, 72 hours
Method: as §1
TMD-8 human diffuse large B lymphoma cells, from Nanjing Cobioer Biotechnology Co., Ltd
as §2, §3, §4, §5, §6, §7, §8

IC50 [1] [nM] | Vd [2] [L/kg] | AUC(0-t) [2] [µM·h] | clearance [2] [mL/min/kg] | half-life [2] [h] | bioavailability [2] [%] | AUC [2] [µM·h] | Cmax [2] [µM] | Tmax [2] [h] | IC50 [3] [nM] | IC50 [4] [nM] | Compound
0.9 | 1.5 | 17.9 | 5.9 | 8.1 | 78 | 48 | 17.8 | 0.5 | 48 | 37 | Cc1cc(-c2nc(C(=O)Nc3cn4cc(C(C)(C)O)nc4cc3-c3ccccc3)co2)ccn1 [WX009]
0.1 | 0.8 | 3.77 | 28.2 | 1.9 | 64 | 8.08 | 4.93 | 0.3 | 26 | 32.2 | CC(C)(O)c1cn2cc(NC(=O)c3coc(-c4ccnc(N)c4F)n3)c(-c3ccccc3)cc2n1 [WX027]
0.1 | 0.5 | 7.67 | 15.1 | 2.3 | 41 | 10.4 | 6.52 | 0.8 | 7 | 10 | CC(C)(O)c1cn2cc(NC(=O)c3coc(-c4ccnc(N)c4)n3)c(-c3ccccc3)cc2n1 [WX017]
